By Ki is commonly meant the dissociation constant of the complex between target and ligand, obtained from inhibition or displacement. Higher therefore signals a looser hold on the target. By IC50 is commonly meant the concentration that gives 50% inhibition.

Targets include Histone deacetylase 2 (Homo sapiens, UniProt Q92769); Histone deacetylase 1 (Homo sapiens, UniProt Q13547); Histone deacetylase 5 (Homo sapiens, UniProt Q9UQL6); Histone deacetylase 4 (Homo sapiens, UniProt P56524); Histone deacetylase 9 (Homo sapiens, UniProt Q9UKV0).
The target in a further data set is T1, Histone deacetylase 11 (Homo sapiens, UniProt Q96DB2).
T1 sequence (Q96DB2 whole entry): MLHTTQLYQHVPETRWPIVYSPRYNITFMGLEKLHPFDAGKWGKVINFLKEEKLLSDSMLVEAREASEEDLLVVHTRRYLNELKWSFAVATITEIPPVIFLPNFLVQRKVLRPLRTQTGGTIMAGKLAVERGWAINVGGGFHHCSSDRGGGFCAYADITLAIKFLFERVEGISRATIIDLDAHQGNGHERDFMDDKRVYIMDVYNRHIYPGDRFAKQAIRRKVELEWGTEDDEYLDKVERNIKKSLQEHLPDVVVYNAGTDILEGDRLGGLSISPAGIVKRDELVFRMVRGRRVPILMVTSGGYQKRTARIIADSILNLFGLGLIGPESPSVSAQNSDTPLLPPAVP

The target of a further data set is Cytochrome P450 2C19 (Homo sapiens, UniProt P33261). Briefly: Inhibition of CYP2C19 in human liver microsomes by fluorescence assay. It is filed as ADME, Microsome.
Sequence of Cytochrome P450 2C19 (P33261 whole entry): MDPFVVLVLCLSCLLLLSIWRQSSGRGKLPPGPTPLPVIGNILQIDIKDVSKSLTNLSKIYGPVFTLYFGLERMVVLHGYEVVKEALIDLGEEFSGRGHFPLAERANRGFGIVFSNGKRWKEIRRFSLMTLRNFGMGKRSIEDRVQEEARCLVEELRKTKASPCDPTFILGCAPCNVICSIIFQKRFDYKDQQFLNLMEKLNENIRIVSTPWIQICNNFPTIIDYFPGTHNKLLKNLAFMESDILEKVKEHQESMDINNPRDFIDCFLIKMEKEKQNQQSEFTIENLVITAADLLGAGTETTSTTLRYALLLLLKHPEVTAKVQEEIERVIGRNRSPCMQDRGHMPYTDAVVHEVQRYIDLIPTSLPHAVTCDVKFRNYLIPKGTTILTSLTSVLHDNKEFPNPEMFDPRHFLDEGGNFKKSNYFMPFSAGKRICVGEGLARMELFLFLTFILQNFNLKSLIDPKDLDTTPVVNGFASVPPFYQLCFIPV
The target of a further data set is Cytochrome P450 2C9 (Homo sapiens, UniProt P11712). Description: Inhibition of CYP2C9 in human liver microsomes by fluorescence assay. In kind it is ADME, Microsome. (In general: Microsomes from liver hold many membrane-bound enzymes, among them those of drug oxidation.)
Sequence of Cytochrome P450 2C9 (P11712 whole entry): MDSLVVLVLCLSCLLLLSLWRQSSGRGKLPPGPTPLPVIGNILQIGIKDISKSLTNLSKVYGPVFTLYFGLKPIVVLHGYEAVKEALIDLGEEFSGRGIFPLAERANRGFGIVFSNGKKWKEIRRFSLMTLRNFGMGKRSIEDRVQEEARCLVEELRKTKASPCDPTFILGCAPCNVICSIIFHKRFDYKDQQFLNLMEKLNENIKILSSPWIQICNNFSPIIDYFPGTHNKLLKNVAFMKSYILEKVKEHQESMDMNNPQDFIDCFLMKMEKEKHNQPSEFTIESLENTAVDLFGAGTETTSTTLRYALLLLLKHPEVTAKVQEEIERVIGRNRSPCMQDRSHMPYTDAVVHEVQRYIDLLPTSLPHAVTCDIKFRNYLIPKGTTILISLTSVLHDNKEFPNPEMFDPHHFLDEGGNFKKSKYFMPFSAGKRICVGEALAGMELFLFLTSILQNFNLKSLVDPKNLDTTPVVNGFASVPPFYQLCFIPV
Data set [1] addresses T2, Polyamine deacetylase HDAC10 (Homo sapiens, UniProt Q969S8).
T2 sequence (Q969S8 whole entry): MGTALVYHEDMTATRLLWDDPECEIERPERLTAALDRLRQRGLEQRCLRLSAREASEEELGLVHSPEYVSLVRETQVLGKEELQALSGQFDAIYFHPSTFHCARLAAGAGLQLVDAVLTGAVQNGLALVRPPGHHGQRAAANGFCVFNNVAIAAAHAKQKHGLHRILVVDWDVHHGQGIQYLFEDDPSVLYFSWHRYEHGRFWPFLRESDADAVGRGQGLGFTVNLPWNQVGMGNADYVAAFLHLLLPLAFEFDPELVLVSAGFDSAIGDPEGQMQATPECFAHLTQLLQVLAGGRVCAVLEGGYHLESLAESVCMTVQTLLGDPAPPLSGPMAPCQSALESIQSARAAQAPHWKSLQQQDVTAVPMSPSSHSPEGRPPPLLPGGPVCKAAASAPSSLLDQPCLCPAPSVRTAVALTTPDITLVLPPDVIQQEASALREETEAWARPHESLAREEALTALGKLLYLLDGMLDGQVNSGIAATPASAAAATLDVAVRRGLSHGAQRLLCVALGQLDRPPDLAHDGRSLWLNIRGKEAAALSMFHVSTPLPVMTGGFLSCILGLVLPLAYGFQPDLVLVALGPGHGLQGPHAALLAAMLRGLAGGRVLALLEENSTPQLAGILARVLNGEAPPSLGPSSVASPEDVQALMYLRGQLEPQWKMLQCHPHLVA
Description: Competitive inhibition of HDAC10 using KI-104 as substrate by fluorescence assay

The next data set addresses Cytochrome P450 2D6 (Homo sapiens, UniProt P10635). Description: Inhibition of recombinant CYP2D6 after 30 mins by fluorescence assay. In kind it is ADME.
Another data set addresses T3, CYP1A (Homo sapiens, UniProt P04798+P05177).
T3 sequence (P04798 whole entry): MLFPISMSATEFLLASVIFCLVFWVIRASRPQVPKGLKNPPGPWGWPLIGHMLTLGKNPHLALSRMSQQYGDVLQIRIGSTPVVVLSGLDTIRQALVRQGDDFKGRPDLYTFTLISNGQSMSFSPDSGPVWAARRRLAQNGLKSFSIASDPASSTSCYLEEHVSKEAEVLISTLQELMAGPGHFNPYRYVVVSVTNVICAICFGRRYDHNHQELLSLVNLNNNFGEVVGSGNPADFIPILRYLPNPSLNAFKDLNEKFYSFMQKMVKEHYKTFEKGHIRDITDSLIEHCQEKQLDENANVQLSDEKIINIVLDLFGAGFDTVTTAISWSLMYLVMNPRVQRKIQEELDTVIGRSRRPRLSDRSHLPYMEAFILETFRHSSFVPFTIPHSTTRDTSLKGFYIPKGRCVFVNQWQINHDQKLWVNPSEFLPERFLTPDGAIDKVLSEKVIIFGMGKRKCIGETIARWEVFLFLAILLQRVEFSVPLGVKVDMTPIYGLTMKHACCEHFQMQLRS
T3 sequence (P05177 whole entry): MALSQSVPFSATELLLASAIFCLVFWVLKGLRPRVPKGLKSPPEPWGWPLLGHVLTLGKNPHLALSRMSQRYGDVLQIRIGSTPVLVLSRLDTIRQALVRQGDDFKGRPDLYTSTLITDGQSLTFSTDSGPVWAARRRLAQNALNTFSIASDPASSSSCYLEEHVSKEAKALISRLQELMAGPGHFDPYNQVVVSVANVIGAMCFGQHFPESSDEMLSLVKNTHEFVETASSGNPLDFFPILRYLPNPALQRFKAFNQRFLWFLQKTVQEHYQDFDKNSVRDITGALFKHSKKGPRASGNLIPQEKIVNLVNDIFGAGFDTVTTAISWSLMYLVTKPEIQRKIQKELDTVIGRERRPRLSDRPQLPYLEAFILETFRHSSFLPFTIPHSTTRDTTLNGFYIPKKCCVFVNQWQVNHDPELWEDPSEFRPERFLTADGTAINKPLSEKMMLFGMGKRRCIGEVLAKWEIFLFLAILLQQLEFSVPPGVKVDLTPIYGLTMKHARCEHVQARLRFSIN
Description: Inhibition of CYP1A in human liver microsomes by fluorescence assay. In kind it is ADME, Microsome.

For the next data set, the system named is COLO 205. Description: Antiproliferative activity against human COLO205 cells after 96 hrs by celltiter 96 assay. In kind it is functional, cell-based. To be noted: COLO 205, 96 h.

Sequence of Histone deacetylase 5 (Q9UQL6 whole entry): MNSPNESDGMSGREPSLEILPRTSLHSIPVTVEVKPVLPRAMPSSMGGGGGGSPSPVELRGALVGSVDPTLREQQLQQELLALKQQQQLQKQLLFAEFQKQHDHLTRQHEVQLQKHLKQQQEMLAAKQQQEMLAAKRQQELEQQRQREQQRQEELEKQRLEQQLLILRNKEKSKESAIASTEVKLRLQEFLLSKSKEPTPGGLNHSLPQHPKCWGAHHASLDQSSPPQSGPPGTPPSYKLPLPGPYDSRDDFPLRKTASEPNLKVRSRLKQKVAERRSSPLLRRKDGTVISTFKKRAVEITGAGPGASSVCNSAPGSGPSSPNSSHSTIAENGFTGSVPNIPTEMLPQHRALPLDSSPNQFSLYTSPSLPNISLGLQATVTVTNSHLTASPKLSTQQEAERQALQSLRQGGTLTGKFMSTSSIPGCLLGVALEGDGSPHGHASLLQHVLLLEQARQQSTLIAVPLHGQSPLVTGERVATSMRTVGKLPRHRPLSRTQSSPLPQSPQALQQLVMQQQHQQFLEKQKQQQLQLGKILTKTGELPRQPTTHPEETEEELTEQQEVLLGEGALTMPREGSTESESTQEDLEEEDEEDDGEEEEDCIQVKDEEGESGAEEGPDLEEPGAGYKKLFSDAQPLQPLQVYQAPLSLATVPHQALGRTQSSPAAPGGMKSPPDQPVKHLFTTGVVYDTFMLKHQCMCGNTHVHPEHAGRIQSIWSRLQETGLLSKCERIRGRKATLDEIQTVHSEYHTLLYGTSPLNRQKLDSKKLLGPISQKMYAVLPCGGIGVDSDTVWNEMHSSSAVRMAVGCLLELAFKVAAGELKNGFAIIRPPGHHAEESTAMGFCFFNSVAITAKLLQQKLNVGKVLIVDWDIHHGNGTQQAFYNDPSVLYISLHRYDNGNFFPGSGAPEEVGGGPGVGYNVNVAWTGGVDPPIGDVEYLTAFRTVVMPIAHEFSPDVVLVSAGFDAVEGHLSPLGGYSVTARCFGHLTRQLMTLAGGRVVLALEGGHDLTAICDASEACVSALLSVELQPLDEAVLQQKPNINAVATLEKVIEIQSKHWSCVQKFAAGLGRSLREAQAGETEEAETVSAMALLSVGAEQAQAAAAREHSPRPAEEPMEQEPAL
Sequence of Histone deacetylase 9 (Q9UKV0 whole entry): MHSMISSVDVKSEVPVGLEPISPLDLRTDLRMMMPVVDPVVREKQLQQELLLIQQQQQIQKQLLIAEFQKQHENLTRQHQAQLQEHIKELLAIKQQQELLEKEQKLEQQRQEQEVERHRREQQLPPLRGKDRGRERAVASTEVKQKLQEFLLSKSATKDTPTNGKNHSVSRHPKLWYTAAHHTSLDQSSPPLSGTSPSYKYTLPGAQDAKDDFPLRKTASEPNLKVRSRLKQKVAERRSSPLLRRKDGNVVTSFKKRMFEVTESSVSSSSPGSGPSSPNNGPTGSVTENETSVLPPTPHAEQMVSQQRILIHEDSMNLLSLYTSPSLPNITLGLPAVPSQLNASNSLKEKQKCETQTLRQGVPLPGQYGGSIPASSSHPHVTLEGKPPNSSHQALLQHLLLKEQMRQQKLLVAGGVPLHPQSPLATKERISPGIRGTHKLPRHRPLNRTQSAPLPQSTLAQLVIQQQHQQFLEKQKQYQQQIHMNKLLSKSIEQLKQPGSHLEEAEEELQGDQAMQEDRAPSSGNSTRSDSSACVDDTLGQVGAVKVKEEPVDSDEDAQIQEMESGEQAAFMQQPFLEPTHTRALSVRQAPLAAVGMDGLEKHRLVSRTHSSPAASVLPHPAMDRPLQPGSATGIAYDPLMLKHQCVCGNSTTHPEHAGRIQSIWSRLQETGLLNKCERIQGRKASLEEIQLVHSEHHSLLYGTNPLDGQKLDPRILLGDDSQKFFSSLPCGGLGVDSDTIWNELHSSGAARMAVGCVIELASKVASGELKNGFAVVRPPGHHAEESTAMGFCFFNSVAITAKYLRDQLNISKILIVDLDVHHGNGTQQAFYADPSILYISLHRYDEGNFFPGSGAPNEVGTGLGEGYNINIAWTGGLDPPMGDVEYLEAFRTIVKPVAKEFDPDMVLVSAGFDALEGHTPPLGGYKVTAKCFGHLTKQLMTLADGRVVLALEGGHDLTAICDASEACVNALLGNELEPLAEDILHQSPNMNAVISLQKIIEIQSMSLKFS
Sequence of Cytochrome P450 2D6 (P10635 whole entry): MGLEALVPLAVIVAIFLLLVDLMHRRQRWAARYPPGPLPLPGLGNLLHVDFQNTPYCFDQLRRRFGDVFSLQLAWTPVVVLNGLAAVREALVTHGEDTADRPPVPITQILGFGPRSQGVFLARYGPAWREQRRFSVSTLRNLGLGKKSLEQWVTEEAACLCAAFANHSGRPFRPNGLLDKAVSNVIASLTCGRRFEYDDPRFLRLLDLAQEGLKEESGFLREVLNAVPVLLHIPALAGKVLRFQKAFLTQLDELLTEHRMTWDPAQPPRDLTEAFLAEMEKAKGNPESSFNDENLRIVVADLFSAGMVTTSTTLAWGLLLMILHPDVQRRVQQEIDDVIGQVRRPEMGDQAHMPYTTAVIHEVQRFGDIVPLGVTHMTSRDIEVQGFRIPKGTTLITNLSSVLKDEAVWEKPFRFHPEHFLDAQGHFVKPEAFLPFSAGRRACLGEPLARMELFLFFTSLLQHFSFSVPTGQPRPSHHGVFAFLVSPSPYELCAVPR
Sequence of Histone deacetylase 4 (P56524 whole entry): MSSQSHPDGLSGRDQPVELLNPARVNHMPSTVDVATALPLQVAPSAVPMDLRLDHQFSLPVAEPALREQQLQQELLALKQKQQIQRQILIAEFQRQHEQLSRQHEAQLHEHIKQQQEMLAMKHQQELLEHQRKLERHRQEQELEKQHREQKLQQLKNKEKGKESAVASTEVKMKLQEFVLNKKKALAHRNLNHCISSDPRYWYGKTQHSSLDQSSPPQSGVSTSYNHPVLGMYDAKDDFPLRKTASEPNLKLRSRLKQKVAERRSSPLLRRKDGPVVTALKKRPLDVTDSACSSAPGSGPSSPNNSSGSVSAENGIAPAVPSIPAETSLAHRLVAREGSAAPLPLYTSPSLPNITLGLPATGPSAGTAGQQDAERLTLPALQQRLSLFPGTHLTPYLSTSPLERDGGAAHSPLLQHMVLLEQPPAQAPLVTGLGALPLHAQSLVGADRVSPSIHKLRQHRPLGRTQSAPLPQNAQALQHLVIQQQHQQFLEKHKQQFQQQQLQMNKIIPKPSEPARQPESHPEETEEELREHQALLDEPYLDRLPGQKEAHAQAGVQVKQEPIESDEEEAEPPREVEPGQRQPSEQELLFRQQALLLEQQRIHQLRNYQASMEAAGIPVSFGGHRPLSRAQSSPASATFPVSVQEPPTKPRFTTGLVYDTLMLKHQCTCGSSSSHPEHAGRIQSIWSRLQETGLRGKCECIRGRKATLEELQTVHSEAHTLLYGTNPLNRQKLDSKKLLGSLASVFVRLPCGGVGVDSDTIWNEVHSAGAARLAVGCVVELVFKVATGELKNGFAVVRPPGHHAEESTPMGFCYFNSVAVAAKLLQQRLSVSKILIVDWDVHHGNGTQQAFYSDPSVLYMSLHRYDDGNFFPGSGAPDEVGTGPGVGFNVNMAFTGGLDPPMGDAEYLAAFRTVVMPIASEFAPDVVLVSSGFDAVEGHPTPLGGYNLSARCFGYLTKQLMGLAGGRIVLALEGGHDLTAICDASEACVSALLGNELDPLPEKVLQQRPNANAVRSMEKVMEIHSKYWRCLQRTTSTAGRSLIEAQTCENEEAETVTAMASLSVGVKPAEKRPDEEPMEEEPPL
Description for Histone deacetylase 11: Competitive inhibition of HDAC11 using KI-104 as substrate by fluorescence assay
Description for Histone deacetylase 2: Competitive inhibition of HDAC2 using KI-104 as substrate by fluorescence assay
Description for Histone deacetylase 4: Competitive inhibition of HDAC4 using KI-104 as substrate by fluorescence assay
Description for Histone deacetylase 5: Competitive inhibition of HDAC5 using KI-104 as substrate by fluorescence assay
Description for Histone deacetylase 9: Competitive inhibition of HDAC9 using KI-104 as substrate by fluorescence assay

Take `CN(C)CC(C)(C)Cn1c(CC(C)(C)C)nc2cc(/C=C/C(=O)NO)ccc21`: the Ki on Histone deacetylase 2 is 26 nM; at Histone deacetylase 11 it was 14 nM; on Histone deacetylase 1, 24 nM; on Histone deacetylase 5, 11 nM; at Histone deacetylase 4, 7.9 nM; on Histone deacetylase 9 it was 11 nM. In data set [1], this molecule showed a Ki of 34 nM. Moreover, the IC50 on Cytochrome P450 2C19 is 8100 nM; at Cytochrome P450 2C9, above 25000 nM; on Cytochrome P450 2D6 it was above 10000 nM; at CYP1A it was above 25000 nM; in the data set with COLO 205 it was 570 nM.

As for `CCCCCCc1nc2cc(/C=C/C(=O)NO)ccc2n1CCN(C)C`, the Ki was determined as 21 nM on Histone deacetylase 2; 11 nM at Histone deacetylase 11; 19 nM at Histone deacetylase 1; 9.2 nM at Histone deacetylase 5; 5.3 nM at Histone deacetylase 4; 11 nM on Histone deacetylase 9. This molecule registered a Ki in data set [1] of 13 nM. In addition, the IC50 was 10300 nM at Cytochrome P450 2C19; 10400 nM against Cytochrome P450 2C9; 3170 nM at Cytochrome P450 2D6; above 25000 nM on CYP1A; 330 nM in the data set on COLO 205.

In the case of `CCCCc1nc2cc(/C=C/C(=O)NO)ccc2n1CCN(CC)CC.Cl.Cl`, the inhibition constant Ki on Histone deacetylase 2 stood at 27 nM; on Histone deacetylase 11, 24 nM; on Histone deacetylase 1 it was […]; on Histone deacetylase 5, 21 nM; on Histone deacetylase 4, 16 nM; on Histone deacetylase 9 it was 24 nM. Also, affinity in data set [1] was put at a Ki of 23 nM. Further, the IC50 against Cytochrome P450 2C19 is 5780 nM; against Cytochrome P450 2C9 it was above 25000 nM; on Cytochrome P450 2D6, above 10000 nM; against CYP1A, above 25000 nM; in the data set with COLO 205 it was 560 nM.
